Source: PubChem BioAssay AID260 (DTP/NCI, 2004)
Values joined by “and” are separate entries in the source; they are usually repeats but may differ in a detail not shown here. Identical values can stand only once. Inconclusive results and toxic doses are left out.

Tested on: CD2F1 mice, intracerebral L1210 leukemia, survival T/C
Assay: NCI In Vivo Anticancer Drug Screen. Data for tumor model L1210 Leukemia (intracerebral) in CD2F1 (CDF1) mice
Details: higher = longer survival
Method: The antitumor activity of compounds was measured in mice bearing transplantable tumors. Survival or tumor size were measured and the results are expressed as the measurement made in the treated group (T) divided by the measurement made in the vehicle treated control group (C). The tumor model used in this assay is L1210 Leukemia (intracerebral) in CD2F1 (CDF1) mice

[1] = endpoint: median survival time, dose: 25.0 mg/kg/injection, schedule: Q01DX009 (ip), vehicle: saline with Tween-80
[2] = endpoint: median survival time, dose: 100.0 mg/kg/injection, schedule: Q01DX009 (ip), vehicle: saline with Tween-80
[3] = endpoint: mean survival time, dose: 10.0 mg/kg/injection, schedule: Q01DX009 (ip), vehicle: saline
[4] = endpoint: median survival time, dose: 100.0 mg/kg/injection, schedule: Q01DX009 (ip), vehicle: saline
[5] = endpoint: median survival time, dose: 200.0 mg/kg/injection, schedule: Q01DX009 (ip), vehicle: saline
[6] = endpoint: median survival time, dose: 400.0 mg/kg/injection, schedule: Q01DX009 (ip), vehicle: saline

With `CC(C)(CO)COC(=O)NC1=C(N2CC2)C(=O)C(NC(=O)OCC(C)(C)CO)=C(N2CC2)C1=O` the T/C (endpoint: median survival time, dose: 0.75 mg/kg/injection, schedule: Q01DX009 (ip), vehicle: water) was 102 % of control and 105 % of control, the T/C (endpoint: median survival time, dose: 1.5 mg/kg/injection, schedule: Q01DX009 (ip), vehicle: water) was 103 % of control and 108 % of control and the T/C (endpoint: median survival time, dose: 3.0 mg/kg/injection, schedule: Q01DX009 (ip), vehicle: water) was 105 % of control and 110 % of control. For the same molecule, the T/C (endpoint: median survival time, dose: 6.0 mg/kg/injection, schedule: Q01DX009 (ip), vehicle: water) was 110 % of control and 113 % of control and the T/C (endpoint: median survival time, dose: 12.0 mg/kg/injection, schedule: Q01DX009 (ip), vehicle: water) was 119 % of control and 113 % of control.

`O=C1C(N2CC2)=C(N2CCCC(O)C2)C(=O)C(N2CC2)=C1N1CCCC(O)C1` (stereo not given) was tested, and the T/C (endpoint: mean survival time, dose: 2.0 mg/kg/injection, schedule: Q04DX003 (ip), vehicle: saline) was 103 % of control and 110 % of control, the T/C (endpoint: mean survival time, dose: 4.0 mg/kg/injection, schedule: Q04DX003 (ip), vehicle: saline) was 121 % of control and 110 % of control and the T/C (endpoint: mean survival time, dose: 6.0 mg/kg/injection, schedule: Q04DX003 (ip), vehicle: saline) was 114 % of control. The T/C (endpoint: mean survival time, dose: 8.0 mg/kg/injection, schedule: Q04DX003 (ip), vehicle: saline) was 114 % of control.

`CCCCCCCCCCCCCCCCCC(=O)Nc1ccn(C2OC(CO)C(O)C2O)c(=O)n1` (stereo not given) was tested, and the T/C [1] was 188 % of control and the T/C [2] was 121 % of control.

With `O=P1(NCCCl)OCCCN1CCCl` (stereo not given) the T/C (endpoint: median survival time, dose: 40.0 mg/kg/injection, schedule: Q01DX001 (ip), vehicle: saline) was 97 % of control, the T/C (endpoint: median survival time, dose: 80.0 mg/kg/injection, schedule: Q01DX001 (ip), vehicle: saline) was 102 % of control and the T/C (endpoint: median survival time, dose: 160.0 mg/kg/injection, schedule: Q01DX001 (ip), vehicle: saline) was 105 % of control. For the same molecule, the T/C (endpoint: median survival time, dose: 320.0 mg/kg/injection, schedule: Q01DX001 (ip), vehicle: saline) was 113 % of control.

With `C[n+]1ccc(Nc2ccc(NC(=O)c3ccc(Nc4cc[n+](C)c5ccc(N)cc45)cc3N)cc2)cc1` the T/C (endpoint: mean survival time, dose: 1.0 mg/kg/injection, schedule: Q01DX009 (ip), vehicle: saline) was 103 % of control, the T/C (endpoint: mean survival time, dose: 2.0 mg/kg/injection, schedule: Q01DX009 (ip), vehicle: saline) was 117 % of control and the T/C (endpoint: mean survival time, dose: 4.0 mg/kg/injection, schedule: Q01DX009 (ip), vehicle: saline) was 119 % of control. For the same molecule, the T/C (endpoint: mean survival time, dose: 8.0 mg/kg/injection, schedule: Q01DX009 (ip), vehicle: saline) was 120 % of control and the T/C (endpoint: mean survival time, dose: 16.0 mg/kg/injection, schedule: Q01DX009 (ip), vehicle: saline) was 123 % of control.

`NC(=O)CNC1=C(N2CC2)C(=O)C(NCC(N)=O)=C(N2CC2)C1=O` was tested, and the T/C (endpoint: mean survival time, dose: 2.5 mg/kg/injection, schedule: Q01DX009 (ip), vehicle: saline) was 101 % of control and 116 % of control, the T/C (endpoint: mean survival time, dose: 5.0 mg/kg/injection, schedule: Q01DX009 (ip), vehicle: saline) was 110 % of control and 113 % of control and the T/C [3] was 105 % of control and 116 % of control. The T/C (endpoint: mean survival time, dose: 15.0 mg/kg/injection, schedule: Q01DX009 (ip), vehicle: saline) was 101 % of control and 113 % of control.

In the case of `N#[N+]c1nc[nH]c1C(N)=O`, the T/C (endpoint: median survival time, dose: 2.0 mg/kg/injection, schedule: Q01DX005 (ip), vehicle: saline) is reported as 112 % of control, the T/C (endpoint: median survival time, dose: 4.0 mg/kg/injection, schedule: Q01DX005 (ip), vehicle: saline) is reported as 105 % of control and the T/C (endpoint: median survival time, dose: 8.0 mg/kg/injection, schedule: Q01DX005 (ip), vehicle: saline) is reported as 107 % of control. The T/C (endpoint: median survival time, dose: 16.0 mg/kg/injection, schedule: Q01DX005 (ip), vehicle: saline) was 105 % of control, the T/C (endpoint: median survival time, dose: 32.0 mg/kg/injection, schedule: Q01DX005 (ip), vehicle: saline) was 105 % of control and the T/C (endpoint: median survival time, dose: 64.0 mg/kg/injection, schedule: Q01DX005 (ip), vehicle: saline) was 101 % of control.

In the case of `CC[C@H]1CN2CCc3cc(OC)c(OC)cc3[C@@H]2C[C@@H]1C[C@H]1NCCc2cc(OC)c(OC)cc21`, the T/C (endpoint: median survival time, dose: 2.0 mg/kg/injection, schedule: Q01DX005 (ip), vehicle: Klucel (hydroxypropylcellulose) (HPC)) is reported as 98 % of control, the T/C (endpoint: median survival time, dose: 4.0 mg/kg/injection, schedule: Q01DX005 (ip), vehicle: Klucel (hydroxypropylcellulose) (HPC)) is reported as 101 % of control and the T/C (endpoint: median survival time, dose: 8.0 mg/kg/injection, schedule: Q01DX005 (ip), vehicle: Klucel (hydroxypropylcellulose) (HPC)) is reported as 115 % of control.

`C[C@@H]1C[C@@H]([C@H](O)CC2CC(=O)NC(=O)C2)C(=O)[C@@H](C)C1` was tested, and the T/C [3] was 114 % of control, the T/C (endpoint: mean survival time, dose: 20.0 mg/kg/injection, schedule: Q01DX009 (ip), vehicle: saline) was 101 % of control and the T/C (endpoint: mean survival time, dose: 40.0 mg/kg/injection, schedule: Q01DX009 (ip), vehicle: saline) was 114 % of control. The T/C (endpoint: mean survival time, dose: 80.0 mg/kg/injection, schedule: Q01DX009 (ip), vehicle: saline) was 106 % of control.

For `COC(=O)c1ccccc1N=NN(C)C`, the T/C (endpoint: mean survival time, dose: 2.5 mg/kg/injection, schedule: Q01DX007 (ip), vehicle: other) was 91 % of control, the T/C (endpoint: mean survival time, dose: 5.0 mg/kg/injection, schedule: Q01DX007 (ip), vehicle: other) was 100 % of control and the T/C (endpoint: mean survival time, dose: 10.0 mg/kg/injection, schedule: Q01DX007 (ip), vehicle: other) was 106 % of control.

With `Cc1cn(C2CC(O)C(CO)O2)c(=O)[nH]c1=O` (stereo not given) the T/C [2] was 104 % of control, the T/C [4] was 100 % of control and 103 % of control and the T/C (endpoint: median survival time, dose: 200.0 mg/kg/injection, schedule: Q01DX009 (ip), vehicle: saline with Tween-80) was 107 % of control. For the same molecule, the T/C [5] was 98 % of control and 100 % of control, the T/C (endpoint: median survival time, dose: 400.0 mg/kg/injection, schedule: Q01DX009 (ip), vehicle: saline with Tween-80) was 109 % of control and the T/C [6] was 101 % of control. For the same molecule, the T/C (endpoint: median survival time, dose: 800.0 mg/kg/injection, schedule: Q01DX009 (ip), vehicle: saline with Tween-80) was 114 % of control, the T/C (endpoint: median survival time, dose: 800.0 mg/kg/injection, schedule: Q01DX009 (ip), vehicle: saline) was 103 % of control and 113 % of control and the T/C (endpoint: median survival time, dose: 1600.0 mg/kg/injection, schedule: Q01DX009 (ip), vehicle: saline with Tween-80) was 106 % of control.

`O=C(Nc1ccccc1)c1c(O)[nH]c(=S)[nH]c1=O` was tested, and the T/C (endpoint: median survival time, dose: 12.5 mg/kg/injection, schedule: Q01DX009 (ip), vehicle: saline with Tween-80) was 94 % of control, the T/C [1] was 98 % of control and the T/C (endpoint: median survival time, dose: 50.0 mg/kg/injection, schedule: Q01DX009 (ip), vehicle: saline with Tween-80) was 113 % of control.

For `O=C1C=CN(C2OC(CO)C(O)C2O)C(=O)C1` (stereo not given), the T/C (endpoint: mean survival time, dose: 33.0 mg/kg/injection, schedule: Q01DX009 (ip), vehicle: saline) was 150 % of control, the T/C [4] was 116 % of control and the T/C [5] was 105 % of control. For the same molecule, the T/C [6] was 107 % of control.

In the case of `CN(C)N=Nc1ccccc1Cl`, the T/C (endpoint: median survival time, dose: 8.0 mg/kg/injection, schedule: Q01DX005 (ip), vehicle: saline + alcohol) is reported as 98 % of control, the T/C (endpoint: median survival time, dose: 16.0 mg/kg/injection, schedule: Q01DX005 (ip), vehicle: saline + alcohol) is reported as 106 % of control and the T/C (endpoint: median survival time, dose: 32.0 mg/kg/injection, schedule: Q01DX005 (ip), vehicle: saline + alcohol) is reported as 102 % of control. For the same molecule, the T/C (endpoint: median survival time, dose: 64.0 mg/kg/injection, schedule: Q01DX005 (ip), vehicle: saline + alcohol) was 102 % of control and the T/C (endpoint: median survival time, dose: 128.0 mg/kg/injection, schedule: Q01DX005 (ip), vehicle: saline + alcohol) was 105 % of control.

`CSCS(=O)C[C@H](CO)NC(=O)/C=C/c1c(C)[nH]c(=O)[nH]c1=O` (stereo not given in full) was tested, and the T/C (endpoint: median survival time, dose: 0.06 mg/kg/injection, schedule: Q01DX005 (ip), vehicle: Klucel (hydroxypropylcellulose) (HPC)) was 97 % of control and 102 % of control, the T/C (endpoint: median survival time, dose: 0.12 mg/kg/injection, schedule: Q01DX005 (ip), vehicle: Klucel (hydroxypropylcellulose) (HPC)) was 100 % of control and 101 % of control and the T/C (endpoint: median survival time, dose: 0.25 mg/kg/injection, schedule: Q01DX005 (ip), vehicle: Klucel (hydroxypropylcellulose) (HPC)) was 100 % of control and 105 % of control. For the same molecule, the T/C (endpoint: median survival time, dose: 0.5 mg/kg/injection, schedule: Q01DX005 (ip), vehicle: Klucel (hydroxypropylcellulose) (HPC)) was 100 % of control and 102 % of control.

For `CC(=O)c1ccccc1N=NN(C)C`, the T/C (endpoint: mean survival time, dose: 10.0 mg/kg/injection, schedule: Q01DX007 (ip), vehicle: DMSO) was 91 % of control, the T/C (endpoint: mean survival time, dose: 20.0 mg/kg/injection, schedule: Q01DX007 (ip), vehicle: DMSO) was 91 % of control and the T/C (endpoint: mean survival time, dose: 40.0 mg/kg/injection, schedule: Q01DX007 (ip), vehicle: DMSO) was 93 % of control. For the same molecule, the T/C (endpoint: mean survival time, dose: 80.0 mg/kg/injection, schedule: Q01DX007 (ip), vehicle: DMSO) was 103 % of control and the T/C (endpoint: mean survival time, dose: 120.0 mg/kg/injection, schedule: Q01DX007 (ip), vehicle: DMSO) was 100 % of control.
